Laboratory results published in patent US20080171710A1, “The Redox/Fyn/c-Cbl Pathway” (priority 2007, published 2008).
Read-outs that look alike come from different tables or passages of the source.

Legend:
PDGFRα [1] = type: cell-based, rat; settings: for effect on MeHg-induced reductions in levels of PDGFRα: together with MeHg; for effect on Pb- and paraquat-induced reductions in levels of PDGFRα: together with Pb (1 μM) or paraquat (5 μM); for absolute levels of PDGFRα: O-2A/OPCs in PDGF, 24 hr exposure
Fyn [2] = biological target: T1, Fyn (Rattus norvegicus, UniProt Q62844); type: cell-based; settings: for effect on MeHg-induced Fyn activation: added 1 h before MeHg
T1 construct: 250 μg of total cell lysates were immunoprecipitated with anti-Fyn antibody; endogenous in cells; host or cells: primary rat O-2A/OPCs
Protocol: Fyn kinase activity was quantified using the Universal Tyrosine Kinase Assay Kit (Takara, Madison, Wis., United States). O-2A/OPCs exposed to different treatments were solubilized with an equal volume of the extraction buffer provided with the kit for 15 min, and the resulting lysates were centrifuged at 13,000×g for 15 min at 4° C.; 250 μg of total cell lysates were immunoprecipitated with anti-Fyn antibody (Santa Cruz Biotechnology). Following immunoprecipitation, Fyn immune complexes were washed four times with extraction buffer, and then Fyn kinase activities of each sample were assayed using the kit according to the manufacturer's instructions.

c-Cbl = type: cell-based, rat; settings: for effect on MeHg-induced c-Cbl phosphorylation: added 1 h before MeHg
Protocol: For the co-immunoprecipitation assay, anti-c-Cbl monoclonal antibody (BD PharMingen) or anti-PDGFRα polyclonal antibody (Santa Cruz Biotechnology) was added to the pre-cleared cell lysates (250 μg of total protein), and the mixtures were gently rocked for 2 h at 4° C. A total of 30 μl of protein A/G agarose was then added to the mixture followed by rotating at 4° C. overnight. The protein A/G agarose was then spun down and washed thoroughly three times. The precipitates were resolved on an 8% SDS-PAGE gel and then were subjected to Western blot analysis using an anti-p-Tyr (for c-Cbl phosphorylation assay) or ubiquitin (for PDGFR ubiquitylation assay) antibody (Santa Cruz Biotechnology).

O-2A/OPCs [3] = assay: In vitro BrdU incorporation assay; type: cell-based, rat; settings: with TMX, 2 days
Protocol: Cell proliferation was assessed by bromodeoxyuridine (BrdU) incorporation and by using the mouse anti-BrdU mAb IgGl (1:100; Sigma) to label dividing cells. Stained cells on cover slips were rinsed two times in 1×PBS, counterstained with 4′6-diamidino-2-phenylindole (DAPI; Molecular Probes, Eugene, Oreg., United States) and mounted on glass slides with Fluoromount (Molecular Probes). Staining against surface proteins was performed on cultures of living cells or on cells fixed with 2% paraformaldehyde. Staining with intracellular antibodies was performed by permeabilizing cells with ice-cold methanol for 4 min or by using 0.5% Triton for 15 mm on 2% parafomaldhyde-fixed cells. Antibody binding was detected with appropriate fluorescent dye-conjugated secondary antibodies at 10 μg/ml (Southern Biotech, Birmingham, Ala., United States) or Alexa Fluor-coupled antibodies at a concentration of 1 μg/ml (Molecular Probes), applied for 20 min. Anti-BrdU monoclonal antibody was obtained from Sigma.

Erk1/2 = type: cell-based, rat; settings: for Erk1/2 phosphorylation caused by PDGF: co-exposure 24 hr, TH, BMP4, FGF-2 or NT-3 (10 ng/ml); for NT-3-stimulated Erk1/2 phosphorylation: co-exposure to TH, BMP-4 or FGF-2
Protocol: (§1) Cells were deprived of PDGF-AA for 5 h before re-exposure to PDGF-AA (10 ng/ml) for 1 h for Western blot or 6 h for luciferase assays of pathway activation. Transient transfection was performed using Fugene6 (Roche, Basel, Switzerland ) transfection solution according to the manufacturer's protocol. For the luciferase assay, cells seeded in 12-well plates were transfected with a reporter plasmid SRE-Luc(firefly) or NF-κB-Luc(firefly) (BD-Clontech, Palo Alto, Calif., United States) and an internal control plasmid pRLSV40-LUC. Analyses of luciferase activity were performed according to the protocol of the Dual Luciferase Assay System (Promega, Madison, Wis., United States), which uses an internal control of Renilla luciferase for quantification, and relative light units were measured using a luminometer.
(§2) Anti-phosphorylated Erk monoclonal, anti-Erk monoclonal, anti-TrkC polyclonal anti-Fyn polyclonal, anti-EGFR polyclonal, anti-c-Met polyclonal, anti-phospho-tyrosine monoclonal, and anti-PDGFRα polyclonal antibodies were obtained from Santa Cruz Biotechnology (Santa Cruz, Calif., United States). Anti-c-Cbl monoclonal antibody was obtained from BD PharMingen (San Diego, Calif., United States). Anti-phosphorylated Akt monoclonal and anti-Akt polyclonal antibodies were obtained from Cell Signaling Technology (Beverly, Mass., United States). Anti-phosphorylated PDGPRα polyclonal antibody was obtained from Biosource (Carlsbad, Calif., United States). The cell culture samples were collected and lysed in RAPI buffer, whereas dissected tissue samples were sonicated in RAPI buffer. Samples were resolved on SDS-PAGE gels and transferred to PVDF membranes (PerkinElmer Life Science. Wellesley, Mass., United States), After being blocked in 5% skim milk in PBS containing 0.1% Tween 20, membranes were incubated with a primary antibody, followed by incubation with an HRP-conjugated secondary antibody (Santa Cruz Biotechnology). Membranes were visualized using Western Blotting Luminol Reagent (Santa Cruz Biotechnology). All analyses of signaling pathway components were conducted in the presence of ligand for the receptor pathway under analysis (either PDGF-AA for PDGFRα, NT-3 or TrkC, HGF for c-Met, or EGF for EGFR).

O-2A/OPCs [4] = assay: Intracellular ROS / redox state measurement; type: cell-based, rat; settings: 1 μM Pb or 5 μM paraquat; dyes dihydro-chloromethyl-rosamine or dihydro-calcein-AM
Protocol: Cells were plated in 96-well microplates and grown to about 60% continence. […] Cells were then washed once with HBSS and growth medium to remove free probe. Then, fresh growth medium was added and a baseline fluorescence reading was taken prior to treatment. For NAC pre-treatment. […] Fluorescence was measured in a Wallac 1420 Victor2 multilabel counter (PerkinElmer) using excitation and emission wavelengths of 485 nm and 535 nm, respectively, at different time courses as indicated in the figures. Results are presented as the value change from baseline by the formula (Ftexp−Ftbase)/Ftbase normalized with the control group, where Ftexp=fluorescence at any given time during the experiment in a give well and Ftbase=baseline fluorescence of the same well.

O-2A/OPCs [5] = assay: Cell death of O-2A/OPCs on exposure; type: cell-based, rat
Protocol: To generate sufficient numbers of cells for biochemical analysis, cells, were expanded through one to two passages in PDGF+FGF-2 before replating in the presence of PDGF alone. When cells achieved approximately 50% confluence, MeHg, Pb, or paraquat was added to their medium at concentrations indicated. Doses for the toxicants were chosen on the basis of dose-response curves to identify sub-lethal exposure levels, as a reflection of blood and brain toxicant levels of these compounds and, where applicable, on the basis of previous reports. All toxicant concentrations examined were confirmed to cause death of less than 5% of cells over the time course of the experiment.

c-Met = type: cell-based, rat; settings: for c-Met levels: O-2A/OPCs in HGF, 24 hr exposure
Source text: as §2

EGFR = type: cell-based, rat; settings: MeHg, Pb or paraquat
Source text: as §2

TrkC = type: cell-based, rat; settings: for levels of TrkC: O-2A/OPCs in NT-3, 24 hr exposure
Source text: as §2

PDGFRα [6] = assay: PDGFRα phosphorylation (Western blot, anti-PDGFRα(pY742)); type: cell-based, rat; settings: 30 nM MeHg; 1 μM Pb; 5 μM paraquat
Source text: The cells were then collected and lysed for Western blotting. […] Cells were lysed for Western blot analysis using anti-PDGFRα(pY742) antibody. The membranes were de-probed and then re-probed with antibody against total PDGFRα and anti-β-tubulin antibody. […]
as §2

SRE-luciferase reporter = SRE-luciferase reporter assay; type: cell-based, rat; settings: PDGF plus TH or BMP-4 (10 ng/ml), 24 hr
Protocol: as §1

Fyn [7] = type: cell-based, rat; settings: exposure to Aβ (5-20 μM)
[8] = added 1 h before Pb or paraquat
[9] = NAC 1 mM, PP1 100 nM or ICI 182,780 200 nM with TMX
[10] = 30 nM MeHg, 1 μM Pb, 5 μM paraquat
[11] = O-2A/OPCs induced to divide by PDGF, 3-4 hr exposure

T1 sequence (Q62844 whole entry): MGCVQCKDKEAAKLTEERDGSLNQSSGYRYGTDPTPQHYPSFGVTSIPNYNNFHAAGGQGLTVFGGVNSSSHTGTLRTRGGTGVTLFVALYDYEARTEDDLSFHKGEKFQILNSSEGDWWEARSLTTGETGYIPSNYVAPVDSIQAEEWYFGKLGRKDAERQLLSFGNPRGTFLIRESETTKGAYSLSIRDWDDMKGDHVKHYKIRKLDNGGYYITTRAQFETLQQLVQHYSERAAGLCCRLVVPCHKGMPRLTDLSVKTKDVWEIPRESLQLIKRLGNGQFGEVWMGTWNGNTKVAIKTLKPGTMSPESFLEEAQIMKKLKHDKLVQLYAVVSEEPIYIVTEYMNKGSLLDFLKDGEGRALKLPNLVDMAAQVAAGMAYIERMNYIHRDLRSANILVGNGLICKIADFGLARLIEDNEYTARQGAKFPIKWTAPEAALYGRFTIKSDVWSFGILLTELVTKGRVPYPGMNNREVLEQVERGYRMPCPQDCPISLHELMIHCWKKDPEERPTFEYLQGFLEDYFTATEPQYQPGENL

CN(C)CCCn1cc(C2=C(c3c[nH]c4ccccc34)C(=O)NC2=O)c2ccccc21 [BIM-1, bisindoleylmaleimide I]
effect on MeHg-induced reductions in levels of PDGFRα (PDGFRα [1]): did not protect
effect on Pb- and paraquat-induced reductions in levels of PDGFRα (PDGFRα [1]): did not protect
effect on MeHg-induced Fyn activation (Fyn [2]): did not prevent
effect on Pb- and paraquat-induced Fyn activation (Fyn [2]; [8]): did not prevent
effect on MeHg-induced c-Cbl phosphorylation (c-Cbl): did not prevent
effect on Pb- and paraquat-induced c-Cbl phosphorylation (c-Cbl; [8]): did not prevent

C[C@]12CC[C@@H]3c4ccc(O)cc4C[C@@H](CCCCCCCCC[S+]([O-])CCCC(F)(F)C(F)(F)F)[C@H]3[C@@H]1CC[C@@H]2O (some centres unmarked) [ICI 182780]
effect on TMX-induced reductions in levels of PDGFRα (PDGFRα [1]; [9]): rescued
effect on TMX-induced activation of Fyn (Fyn [2]; [9]): prevented
effect on TMX-induced activation of c-Cbl (c-Cbl; [9]): prevented
effect on TMX effect on cell proliferation (O-2A/OPCs [3]): blocked

CC(C)(C)n1nc(-c2ccc(Cl)cc2)c2c(N)ncnc21 [PP2]
effect on MeHg-induced Fyn activation (Fyn [2]): blocked
effect on MeHg-induced c-Cbl phosphorylation (c-Cbl): blocked

[Pb] [Pb, lead]
total levels of PDGFRα after toxicant exposure (PDGFRα [1]; MeHg 30 nM, 1 μM Pb, 5 μM paraquat): reduced
PDGF-induced Erk1/2 phosphorylation after toxicant exposure (Erk1/2; 30 nM MeHg 24 h, 1 μM Pb, 5 μM paraquat): reduced levels of Erk1/2 phosphorylation
cells more oxidized (intracellular redox state) (O-2A/OPCs [4]): approximately 20%
Fyn activation after toxicant exposure (Fyn [2]; [10]): activation of Fyn
c-Cbl phosphorylation after toxicant exposure (c-Cbl; [10]): increased phosphorylation of c-Cbl
cell death at the concentrations used (O-2A/OPCs [5]; MeHg at lower concentrations (not above 50 nM), 1 μM Pb, 5 μM paraquat): did not cause cell death
levels of c-Met after toxicant exposure (c-Met; MeHg, Pb or paraquat): also reduced
levels of EGFR after toxicant exposure (EGFR): also reduced
levels of TrkC after toxicant exposure (TrkC; MeHg, Pb or paraquat): neither Pb or paraquat caused a reduction
phosphorylation of PDGFRα after toxicant exposure (PDGFRα [6]): reduced

N[C@@H](Cc1cc(I)c(Oc2ccc(O)c(I)c2)c(I)c1)C(=O)O [TH, thyroid hormone, reference compound]
SRE-reporter gene expression (SRE-luciferase reporter): greatly reduces
absolute levels of PDGFRα (PDGFRα [1]): reductions
Erk1/2 phosphorylation caused by PDGF (Erk1/2): reduce
NT-3-stimulated Erk1/2 phosphorylation (Erk1/2): not affected

C[C@@H]1C[C@@H]([C@H](O)CC2CC(=O)NC(=O)C2)C(=O)[C@@H](C)C1 [cycloheximide]
levels of PDGFRα on inhibition of protein synthesis (PDGFRα [1]; cycloheximide 1 μg/ml): reductions

O=C1N[C@H](C(=O)O)CS1 [proeysteinc, procysteine]
effect on Pb- and paraquat-induced reductions in levels of PDGFRα (PDGFRα [1]): protected

Aβ(1-42): amino acids 1-42 of amyloid beta protein
levels of PDGFRα (PDGFRα [1]; exposure to Aβ): reduced
Erk1/2 phosphorylation induced by NT-3 (Erk1/2; exposure to Aβ(1-42)): had no effect
PDGF-mediated induction of Erk1/2 phosphorylation (Erk1/2; exposure to Aβ(1-42)): inhibited
Fyn phosphorylation (Fyn [7]): phosphorylated
c-Cbl phosphorylation (c-Cbl; exposure to Aβ (5-20 μM)): phosphorylated
cell death (O-2A/OPCs [5]; 5-10 μM Aβ(1-42), 48 hrs): little cell death
concentration inducing progenitor cell death (O-2A/OPCs [5]; O-2A/OPCs): 20 µM

bone morphogenetic protein-4 [BMP-4]
SRE-reporter gene expression (SRE-luciferase reporter): greatly reduces
absolute levels of PDGFRα (PDGFRα [1]): reductions
Erk1/2 phosphorylation caused by PDGF (Erk1/2): reduce
NT-3-stimulated Erk1/2 phosphorylation (Erk1/2): not affected
fyn activation (Fyn [2]; differentiation inducers TH and BMP): activated
c-Cbl phosphorylation (c-Cbl; [11]): increased phosphorylation
c-Met levels (c-Met): decreases
levels of TrkC (TrkC): unaffected

fibroblast growth factor-2 [FGF-2]
levels of PDGFRα in the presence of actinomycin D (PDGFRα [1]; FGF-2 10 ng/ml and PDGF, 24 hr): still show increased levels
absolute levels of PDGFRα (PDGFRα [1]): increase
Erk1/2 phosphorylation caused by PDGF (Erk1/2): enhances signaling
NT-3-stimulated Erk1/2 phosphorylation (Erk1/2): not affected
c-Cbl phosphorylation (c-Cbl; [11]): caused a reduction
c-Met levels (c-Met): increased
levels of TrkC (TrkC): unaffected

B1: scrambled (Scr) RNAi: scrambled negative control for c-Cbl RNAi, SEQ ID NO: 7 and 8 (nucleic acid)
chain 1: TTTAAACCCGGCCCTTTGGTTCAAGAGACCAAAGGGCCGGGTTTAAATTTTTT
chain 2: AATTAAAAAATTTAAACCCGGCCCTTTGGTCTCTTGAACCAAAGGGCCGGGTTTAAAGGCC
effect on MeHg-induced reductions in levels of PDGFRα (PDGFRα [1]): had no effect

B2: neurotrophin-3 (protein, UniProt P20783 139-257, looked up)
Neurotrophin-3: YAEHKSHRGEYSVCDSESLWVTDKSSAIDIRGHQVTVLGEIKTGNSPVKQYFYETRCKEARPVKNGCRGIDDKHWNSQCKTSQTYVRALTSENNKLVGWRWIRIDTSCVCALSRKIGRT
notes: signaling molecule that enhances self-renewal
absolute levels of PDGFRα (PDGFRα [1]): increase
Erk1/2 phosphorylation caused by PDGF (Erk1/2): enhances signaling
c-Cbl phosphorylation (c-Cbl; [11]): caused a reduction
c-Met levels (c-Met): increased
levels of TrkC (TrkC): unaffected
